This experiment concerns the target T1, integrin α4β7 (Mus musculus, UniProt P26011+Q00651).
T1 construct: host or cells: TK-1 mouse T-cell lymphoma cells
T1 sequence (Q00651 41-1039): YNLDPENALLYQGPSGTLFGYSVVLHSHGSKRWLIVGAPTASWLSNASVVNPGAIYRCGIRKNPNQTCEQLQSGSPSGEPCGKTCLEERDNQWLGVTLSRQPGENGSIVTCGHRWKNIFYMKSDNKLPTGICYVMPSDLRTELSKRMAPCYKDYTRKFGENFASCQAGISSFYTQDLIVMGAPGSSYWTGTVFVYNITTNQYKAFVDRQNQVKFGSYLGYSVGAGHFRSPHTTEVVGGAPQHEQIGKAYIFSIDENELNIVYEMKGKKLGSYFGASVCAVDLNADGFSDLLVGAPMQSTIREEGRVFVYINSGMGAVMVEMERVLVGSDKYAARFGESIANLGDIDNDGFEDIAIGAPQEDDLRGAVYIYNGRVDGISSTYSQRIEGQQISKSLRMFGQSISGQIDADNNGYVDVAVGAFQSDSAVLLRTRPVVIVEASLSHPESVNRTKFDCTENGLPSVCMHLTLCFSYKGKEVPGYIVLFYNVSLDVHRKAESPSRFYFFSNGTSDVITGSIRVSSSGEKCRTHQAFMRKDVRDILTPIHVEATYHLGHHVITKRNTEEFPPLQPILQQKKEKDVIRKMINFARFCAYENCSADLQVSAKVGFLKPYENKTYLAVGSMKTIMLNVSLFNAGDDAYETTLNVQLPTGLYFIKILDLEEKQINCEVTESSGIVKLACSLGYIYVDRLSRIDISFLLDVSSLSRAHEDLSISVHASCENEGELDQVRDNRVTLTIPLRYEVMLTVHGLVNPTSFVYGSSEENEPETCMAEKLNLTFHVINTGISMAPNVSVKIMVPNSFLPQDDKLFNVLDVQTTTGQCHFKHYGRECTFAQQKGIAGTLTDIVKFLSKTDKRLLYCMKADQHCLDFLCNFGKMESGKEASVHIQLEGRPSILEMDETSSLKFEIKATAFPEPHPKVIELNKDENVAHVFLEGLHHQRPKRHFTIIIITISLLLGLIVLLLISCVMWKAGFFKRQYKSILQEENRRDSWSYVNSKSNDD
T1 sequence (P26011 20-806): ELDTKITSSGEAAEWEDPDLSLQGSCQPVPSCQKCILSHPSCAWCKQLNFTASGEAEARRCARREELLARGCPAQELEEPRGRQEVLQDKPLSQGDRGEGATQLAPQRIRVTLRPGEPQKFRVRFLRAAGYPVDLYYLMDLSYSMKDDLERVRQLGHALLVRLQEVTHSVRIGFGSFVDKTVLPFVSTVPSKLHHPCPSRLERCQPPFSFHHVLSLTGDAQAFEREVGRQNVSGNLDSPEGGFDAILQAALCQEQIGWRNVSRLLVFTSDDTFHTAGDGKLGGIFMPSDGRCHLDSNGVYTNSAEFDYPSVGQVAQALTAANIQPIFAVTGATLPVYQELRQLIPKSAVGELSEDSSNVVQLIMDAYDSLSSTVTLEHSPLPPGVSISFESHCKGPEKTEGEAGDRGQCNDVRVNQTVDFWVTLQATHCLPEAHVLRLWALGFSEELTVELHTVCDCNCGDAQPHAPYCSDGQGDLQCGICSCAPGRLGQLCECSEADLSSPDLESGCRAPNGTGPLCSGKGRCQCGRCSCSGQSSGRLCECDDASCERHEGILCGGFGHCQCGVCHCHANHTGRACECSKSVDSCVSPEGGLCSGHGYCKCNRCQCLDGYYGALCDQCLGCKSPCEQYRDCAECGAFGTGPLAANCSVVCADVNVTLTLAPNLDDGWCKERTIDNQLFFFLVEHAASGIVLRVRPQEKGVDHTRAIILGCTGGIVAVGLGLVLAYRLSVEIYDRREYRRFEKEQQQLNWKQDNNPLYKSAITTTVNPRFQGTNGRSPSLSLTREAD
The experiment can be described thus: Integrin α4β7-MAdCAM mouse cell adhesion assay (TK-1 cells). The format is cell-based. To be noted: for IC50: TK-1 cells, read-out: IC50 in mouse α4β7-containing cell adhesion. Here is the method:
TK-1 mouse T-cells lymphoma cell lines (ATCC CRL2396) were cultured in RPMI 1640 medium (HyClone SH30027.1) supplemented with 10% FBS (Seradigm) and 1% Penicillin-Streptomycin. A 96-well plate (Costar, 3603) was coated with 100 μl/well of recombinant mouse MAdCAM-1 Fc Chimera (R&D Systems, 993-MC-050) solution at 0.25 μg/ml in coating buffer (50 mM sodium carbonate, pH 9.6). The plate was incubated overnight at 4° C. and washed twice with 150 μl per well wash buffer (0.05% Tween 20 in PBS), blocked with 250 μl per well blocking buffer (1% non-fat dry milk in PBS), and incubated for 2 hours at room temperature. TK-1 cells were resuspended at 10 million cells/ml in PBS containing […] and incubated at 37° C. for 30 min in a 50 ml tube. […] The plate was emptied by inverting and blotting on paper towels and washed manually twice with PBS. 100 μl PBS was then added to each well. The fluorescence was read (Ex495/Em515) using a plate reader (Tecan Infinite 1000). To calculate the dose response, the fluorescence value of control wells not containing cells was subtracted from each test well.

Numbered stars: 1 amine (or outer) side, 2 acyl side, 3 side chain; on linkers, the order of the positions; unused ones are H or OH. Square brackets hold non-standard residues; d marks the D form. Peptide text beside a SMILES is read from it. X1 = O=C(c1ccc(-c2ccc(N3CCNCC3)cc2)c(CN[*:1])c1)[*:2]

One may read the IC50 as the concentration at which inhibition is half-maximal.

In the case of `CC(C)C[C@@H]1NC(=O)c2ccc(-c3ccc(N4CCNCC4)cc3)c(c2)CNC(=O)[C@@H]2CCCN2C(=O)[C@H](C)NC(=O)[C@H]([C@@H](C)O)NC(=O)[C@H](CC(=O)O)NC1=O` [Compound 8] (cyclo(P[X1]LDTA)), where the note is “TK-1 versus RPMI8866, weaker in mouse”, the “fold difference in IC50 between mouse α4β7-containing and human α4β7-containing cell adhesion” value is around 10 fold.
For `CC(C)C[C@@H]1NC(=O)c2ccc(-c3ccc(N4CCN(C(=O)COCC(=O)N5CCN(c6ccc(-c7ccc8cc7CNC(=O)[C@@H]7CCCN7C(=O)[C@H](C)NC(=O)[C@H]([C@@H](C)O)NC(=O)[C@H](CC(=O)O)NC(=O)[C@H](CC(C)C)NC8=O)cc6)CC5)CC4)cc3)c(c2)CNC(=O)[C@@H]2CCCN2C(=O)[C@H](C)NC(=O)[C@H]([C@@H](C)O)NC(=O)[C@H](CC(=O)O)NC1=O` [Compound 17], the IC50 is around 97 nM.
Take `CC(C)C[C@@H]1NC(=O)c2ccc(-c3ccc(N4CCN(Cc5cccc(CN6CCN(c7ccc(-c8ccc9cc8CNC(=O)[C@@H]8CCCN8C(=O)[C@H](C)NC(=O)[C@H]([C@@H](C)O)NC(=O)[C@H](CC(=O)O)NC(=O)[C@H](CC(C)C)NC9=O)cc7)CC6)c5)CC4)cc3)c(c2)CNC(=O)[C@@H]2CCCN2C(=O)[C@H](C)NC(=O)[C@H]([C@@H](C)O)NC(=O)[C@H](CC(=O)O)NC1=O` [Compound 18]: the IC50 was around 68 nM.

The values above are taken from US11286281B2, “Homodetic cyclic peptides targeting alpha-4-beta-7 integrin” (priority 2017, dated 2022).
